Measurements: patent EP0330992A2, “Novel cyclobutane Derivatives, processes for their preparation and pharmaceutical compositions comprising them” (Nippon Kayaku Kabushiki Kaisha, priority 1988, dated 1989)
Converted amounts (≈) assume the structure as drawn.

Experiments:
Type in all cases: cell-based
[1] = test system: human uterine cervical cancer HeLa S₃; assay: Growth inhibition of HeLa S3 cells, Methylene Blue staining (Test Example 5, Method 5); conditions: 50% growth inhibitory concentration, 72 hours, read-out: IC₅₀ HeLaS₃
Description: Anticancer activity against human uterine cervical cancer HeLa S₃, mouse leukemia L1210 and P388 cells was examined by the following method. HeLa S₃ cells were prepared in a concentration of 7.5 x 10³ cells/ml and inoculated on a 96 well flat bottom plate by 0.2 ml/well each. After culturing at 37°C for 24 hours in a 5% CO₂ incubator, 10 µl of the compound was added thereto followed by culturing for 72 hours. After culturing, the culture medium of each well was withdrawn and fixed with methanol. Then, 0.1 ml/well each of 0.05% Methylene Blue/10 mM-Tris-HCl (pH 8.5) solution was added to stain at room temperature for 30 minutes. After withdrawing the dyeing solution from each well using an aspirator, the well was washed 3 times with pure water. After adding 3% HCl in a ratio of 0.2 ml/well, the well was sealed and allowed to stand at room temperature for about 24 hours and the dye was then extracted from the cells. Absorbance of each well at 660 nm was measured with Dynatec microplate reader. The growth inhibition rate treated wells to the control wells were calculated according to the equation below and 50% growth inhibitory concentration (IC₅₀, µg/ml) was determined by the Litchfield method. Growth inhibition rate (%) = (1 - A₁/A₀) x 100 wherein A₁ = Absorbance of the treated group A₀ = Absorbance of the control group

[2] = test system: human cytomegalovirus (HCMV); assay: Anticytomegaloviral plaque formation inhibition in human fetal fibroblast (Test Example 2, Method 2); conditions: Human betaherpesvirus 5, 240 h, AO169 strain, 10 days, read-out: IC₅₀ HCMV
Description: An activity against human cytomegalovirus (HCMV) which was DNA virus was examined by the following method.
Anticytomegaloviral activity was determined in terms of 50% inhibitory concentration (IC₅₀) by infecting 35 mm dish having a single layer of human fetal fibroblast with 100 PFU (plaque forming unit) of cytomegalovirus (AO169 strain), adsorbing for an hour, laying thereon a medium containing the compound of each concentration supplemented with 0.5% agarose and 2% fetal calf serum, culturing at 37°C for 10 days in a 5% (v/v) carbon dioxide gas incubator and measuring formation of plaque.

[3] = test system: mouse leukemia L1210 cells; assay: Growth inhibition of L1210 cells, cell count (Test Example 5, Method 6); conditions: 50% growth inhibitory concentration, 48 hours, read-out: IC₅₀ L1210
Description: (§1) Anticancer activity against human uterine cervical cancer HeLa S₃, mouse leukemia L1210 and P388 cells was examined by the following method. P388 and L1210 cells were inoculated on a 24 well plate and the compound was added thereto followed by incubation at 37°C for 48 hours in 5% CO₂. The number of cells after the incubation was counted with a Caulter counter. The growth inhibition rate of the treated group to the control group was calculated according to the equation below and 50% growth inhibitory concentration (IC₅₀, µg/ml) was determined by the Litchfield method. Growth inhibition rate (%) = [1 - (NT-N₀)/(Nc-N₀)] x 100 wherein NT = cell count of the treated group N₀ = cell count at the onset of incubation Nc = cell count of the control group

[4] = test system: mouse leukemia P388 cells; assay: Growth inhibition of P388 cells, cell count (Test Example 5, Method 6); conditions: 50% growth inhibitory concentration, 48 hours, read-out: IC₅₀ P338
Description: as §1

[5] = test system: herpes simplex virus type 1 (HSV-I); assay: Plaque formation inhibition in Vero cells (Test Example 1, Method 1); conditions: Human alphaherpesvirus 1, 48 hours, read-out: IC₅₀ HSV-1
Description: (§2) Antiviral activity against herpes simplex virus type 1 (HSV-I) and herpes simplex virus type 2 (HSV-II) which were DNA viruses was examined by the following methods.
(§3) A 6 well multiplate bearing a single layr of Vero cells (derived from African green monkey kidney cell) was infected with 100-150 PFU (plaque forming unit) of virus. After (infection) at 37°C for an hour, agar medium (Eagle's MEM medium supplemented with 1.5% agar) containing a sample of each concentration was put on the single layer followed by culturing at 37°C for 48 hours in a 5% (v/v) carbon dioxide incubator. Thereafter, formation of plaque was measured to determine 50% inhibitory concentration (IC₅₀).

[6] = test system: herpes simplex virus type 2 (HSV-II); assay: as above; conditions: Human alphaherpesvirus 2, 48 hours, read-out: IC₅₀ HSV-2
Description: as §2, §3

hepatitis B virus (HBV) = assay: Hepatitis B virus DNA in liver cell line HB611, Southern method (Test Example 3, Method 3); conditions: 360 h, HB611 cells, 15 days, HBV DNA by Southern method, read-out: IC₅₀ HBV
Description: Activity against hepatitis B virus (HBV) which was DNA virus was examined by the following method.
Incubated liver cell line HB611 (Proc. Natl. Acad. Sci. USA, 84 (1987), 444) capable of producing and releasing activated hepatitis B virus was cultured in modified Eagle's medium (GIBCO) at 37°C in 5% CO₂ in the presence 10% fetal calf serum, 200 µg/ml of G418 and 100 U/ml each of penicillin and streptomycin. The culture was inoculated on a 6 well plate in 5 x 10⁴ cells/well (35 mm). When 50% confluent state was achieved 1 or 2 days after, a definite quantity of this compound was added and the mixture was cultured. While exchanging with a medium containing the compound in the same concentration every 3 other days, incubation was continued for 15 days. Thereafter the medium was removed. The cells were treated with 0.5 ml of lysis buffer (10 mM Tris HCl, pH 7.8/5 mM Na₂EDTA, 1% SDS/0.1 mg/ml Pronase K) at 37°C for an hour. The resulting DNA was treated with RNase and purified by treatment with phenol and chloroform and then precipitation with ethanol.
Then, 5 µg of DNA was treated with Hind III and DNA pattern was analyzed by the Southern method using as a probe ³²P-labeled hepatitis B virus DNA.

AIDS virus (HIV) = assay: Anti-HIV activity in MT-4 cells, viral antigen by fluorescent antibody method (Test Example 4, Method 4); conditions: Human immunodeficiency virus 1, MT4, 96 h, read-out: IC₅₀ HIV
Description: Activity against AIDS virus (HIV) which was RNA virus was examined by the following method.
In an anti-HIV (human immunodeficiency virus) active 24 well tray were charged about 50,000/ml of MT-4 cells. Further […] of a solution containing a definite amount of the compound of this invention was added thereto. After culturing at 37°C for 2 hours in a 5% (v/v) carbon dioxide gas incubator, 10³-10⁴ infection units of HIV were added thereto. After culturing for 4 days, a part of the culture solution was smeared on a slide glass and fixed with acetone. Then, occurrence of viral antigen was observed by fluorescent antibody method.
As primary antibody in the fluorescent antibody method, serum from the patient with AIDS was used and FITC-labeled anti-human IgG was used as secondary antibody.

Row | Compound | IC50 [1] [µg/mL] | IC50 [2] [µg/mL] | IC50 [3] [µg/mL] | IC50 [4] [µg/mL] | IC50 [5] [µg/mL] | IC50 [6] [µg/mL] | IC50 (hepatitis B virus (HBV)) [µg/mL] | IC50 (AIDS virus (HIV)) [µg/mL]
1 | Nc1nc2c(ncn2[C@@H]2C[C@H](CO)[C@H]2O)c(=O)[nH]1 (racemic) [Compound 9, (±)-9-[(1β,2α,3β)-2-hydroxy-3-hydroxymethylcyclobutan-1-yl]guanine] | 10.9 (≈ 43.4 µM) | 0.95 (≈ 3.78 µM) | 2.56 (≈ 10.2 µM) | 2.57 (≈ 10.2 µM) | 0.3 (≈ 1.19 µM) | 0.31 (≈ 1.23 µM) | – | –
2 | [N-]=[N+]=N[C@@H]1[C@@H](CO)C[C@H]1n1cc(F)c(=O)[nH]c1=O (racemic) [Compound 14, (±)-1-[(1β,2α,3β)-2-azido-3-hydroxymethylcyclobutan-1-yl]-5-fluoro-2,4(1H,3H)-pyrimidinedione] | – | 20 (≈ 78.4 µM) | – | – | – | – | 32 (≈ 125 µM) | –
3 | Cc1cn([C@@H]2C[C@H](CO)[C@H]2N)c(=O)[nH]c1=O (racemic) [Compound 17, (±)-1-[(1β,2α,3β)-2-amino-3-hydroxymethylcyclobutan-1-yl]-5-methyl-2,4(1H,3H)-pyrimidinedione] | – | – | – | – | – | – | 35 (≈ 155 µM) | –
4 | Nc1nc2c(ncn2[C@H]2C[C@@H](CO)C2)c(=O)[nH]1 [Compound 2-2, 9-[(1β,3β)-3-hydroxymethylcyclobutan-1-yl]guanine] | 30 (≈ 128 µM) | 2.6 (≈ 11.1 µM) | 23.1 (≈ 98.2 µM) | 11.5 (≈ 48.9 µM) | 1.6 (≈ 6.8 µM) | 3.6 (≈ 15.3 µM) | – | 10 (≈ 42.5 µM)
5 | Nc1ncnc2c1ncn2[C@H]1C[C@@H](CO)C1 [Compound 2-1, 9-[(1β,3β)-3-hydroxymethylcyclobutan-1-yl]adenine] | 100 (≈ 456 µM) | – | 63.1 (≈ 288 µM) | 34.1 (≈ 156 µM) | – | – | 2 (≈ 9.12 µM) | 0.3 (≈ 1.37 µM)
6 | Nc1ncnc2c1ncn2[C@@H]1C[C@H](CO)[C@H]1O (racemic) [Compound 7, (±)-9-[(1β,2α,3β)-2-hydroxy-3-hydroxymethylcyclobutan-1-yl]adenine] | 6.97 (≈ 29.6 µM) | 0.45 (≈ 1.91 µM) | 1.84 (≈ 7.82 µM) | 1.64 (≈ 6.97 µM) | 4 (≈ 17 µM) | – | – | –
7 | O=c1[nH]cnc2c1ncn2[C@@H]1C[C@H](CO)[C@H]1O (racemic) [Compound 4-2, (±)-9-[(1β,2α,3β)-2-hydroxy-3-hydroxymethylcyclobutan-1-yl]hypoxanthine] | – | 2.8 (≈ 11.9 µM) | – | – | – | – | – | –
8 | Nc1nc(N)c2ncn([C@@H]3C[C@H](CO)[C@H]3O)c2n1 (racemic) [Compound 4-4, (±)-2,6-diamino-9-[(1β,2α,3β)-2-hydroxy-3-hydroxymethylcyclobutan-1-yl]purine] | 21 (≈ 83.9 µM) | 0.69 (≈ 2.76 µM) | 2.4 (≈ 9.59 µM) | 3.4 (≈ 13.6 µM) | 2.2 (≈ 8.79 µM) | – | – | 3 (≈ 12 µM)
9 | Nc1nc(Cl)c2ncn([C@@H]3C[C@H](CO)[C@H]3O)c2n1 (racemic) [Compound 4-3, (±)-2-amino-6-chloro-9-[(1β,2α,3β)-2-hydroxy-3-hydroxymethylcyclobutan-1-yl]purine] | 66 (≈ 245 µM) | 3.3 (≈ 12.2 µM) | 8 (≈ 29.7 µM) | 12 (≈ 44.5 µM) | 8.5 (≈ 31.5 µM) | – | – | –
